In patent publication EP4800013A1, “PARG INHIBITOR” (Shanghai Qilu Pharmaceutical Research and Development …, priority 2023, dated 2025) one finds IC50 data, which are given here for three compounds.

One experiment has as its system KURAMOCHI cells. The experiment is described as follows: Inhibition of proliferation of KURAMOCHI cells (CellTiter-Glo, intracellular ATP). The format is cell-based. As to conditions: 168 h, incubated for 7 days, read-out: IC50 against KURAMOCHI cells. The method, boiled down:
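KURAMOCHI cells seeded at 4000/well, incubated overnight, then treated with 9-point 1:4 compound series from 10 µM (0.5% DMSO) for 7 days at 37°C, 5% CO2. Viability read by CellTiter-Glo luminescence; inhibition normalised to medium-only (100%) and DMSO (0%) controls, IC50 from variable-slope four-parameter fit.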
(In ATP-based viability assays light output follows the ATP content of the culture.)

The target of a further experiment is T1, PARG (Homo sapiens, UniProt Q86W56).
T1 construct: made in house
T1 sequence (Q86W56 whole entry): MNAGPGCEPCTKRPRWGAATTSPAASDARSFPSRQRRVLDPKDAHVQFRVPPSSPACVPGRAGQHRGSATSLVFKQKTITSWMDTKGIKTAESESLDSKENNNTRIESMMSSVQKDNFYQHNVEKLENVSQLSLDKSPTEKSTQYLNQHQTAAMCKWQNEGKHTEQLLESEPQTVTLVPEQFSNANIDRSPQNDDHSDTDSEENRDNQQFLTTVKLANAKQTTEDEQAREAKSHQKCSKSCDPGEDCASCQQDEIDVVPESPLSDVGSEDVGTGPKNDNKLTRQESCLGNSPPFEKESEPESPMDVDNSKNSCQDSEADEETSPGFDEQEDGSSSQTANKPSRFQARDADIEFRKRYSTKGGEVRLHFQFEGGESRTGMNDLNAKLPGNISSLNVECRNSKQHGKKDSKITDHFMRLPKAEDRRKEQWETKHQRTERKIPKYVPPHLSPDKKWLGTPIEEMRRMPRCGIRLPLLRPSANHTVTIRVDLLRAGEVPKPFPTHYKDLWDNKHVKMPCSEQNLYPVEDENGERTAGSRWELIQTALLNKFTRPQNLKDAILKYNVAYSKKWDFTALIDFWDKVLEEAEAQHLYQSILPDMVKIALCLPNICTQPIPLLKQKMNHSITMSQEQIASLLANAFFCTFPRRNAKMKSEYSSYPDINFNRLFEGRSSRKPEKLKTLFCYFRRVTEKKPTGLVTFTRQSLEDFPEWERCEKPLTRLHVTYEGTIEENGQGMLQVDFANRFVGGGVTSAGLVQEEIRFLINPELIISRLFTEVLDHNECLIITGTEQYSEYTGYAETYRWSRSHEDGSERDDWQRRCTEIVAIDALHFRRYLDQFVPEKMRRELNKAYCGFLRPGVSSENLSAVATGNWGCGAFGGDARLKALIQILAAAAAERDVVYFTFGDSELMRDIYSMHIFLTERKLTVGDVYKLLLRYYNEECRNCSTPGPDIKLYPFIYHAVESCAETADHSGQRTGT
The experiment is described as follows: Enzymatic inhibitory activity against PARG, HTRF assay. Format: biochemical. As to conditions: HTRF; PARylated PARP1 protein as substrate; 60 minutes at room temperature; read-out: IC50 against PARG enzyme. The method, boiled down:
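Purified PARG pre-incubated with compounds (top 10 µM, 3- to 5-fold dilutions, duplicates) 15 min at room temperature, then PARylated PARP1 substrate added for 60 min in Tris pH 7.4 buffer with DTT, EDTA/EGTA, KCl. HTRF (His-Tb/SA-XL665) read-out; IC50 by four-parameter logistic fit, normalised to DMSO and control-inhibitor wells.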
(Time-resolved FRET reads energy transfer from a long-lived donor to a nearby acceptor.)

What is called IC50 is the concentration at which inhibition is half-maximal.

The structures appear in SMILES notation.

As for `CCc1nc2n(-c3nnc(C(F)F)s3)c3cc(S(=O)(=O)NC4(C)CC4)cc(N4C[C@H](C)N[C@@H](C)C4)c3n2n1` [Compound 065R], the IC50 in the experiment on KURAMOCHI cells came out at 2 nM; at PARG, 0.4 nM.
The like results for `C[C@H]1CN(c2cc(S(=O)(=O)NC3(C)CC3)cc3c2n2nc(C(F)F)nc2n3-c2nnc(C(F)F)s2)C[C@H](C)N1` [Compound 065S] were, in that order, 2 nM and 1.4 nM.
The like results for `C[C@H]1CN(c2cc(S(=O)(=O)NC3(C)CC3)cc3c2n2nc(C(F)(F)F)nc2n3-c2nnc(C(F)F)s2)C[C@H](C)N1` [Compound 065W] were, in that order, 4 nM and 0.8 nM.
